{
  "source": "patent US10905781B2",
  "about": "“Reporter platform for real time monitoring of drug efficacy” (THE BRIGHAM AND WOMEN'S HOSPITAL, INC., priority 2016, dated 2021)",
  "tested_on": "effector caspases (caspase-3 and caspase-7) compared with initiator caspases (caspase-6 and caspase-9)",
  "experiment": "Activation of the NIR FRET reporter element by caspases",
  "format": "biochemical",
  "conditions": "caspase-3 and caspase-7 compared with caspase-6 and caspase-9",
  "method": "FIG. 15A is a graph showing the time-dependent activation of the reporter element (with the NIR FRET pair) in the presence of caspase-3. Reporter element (50 μM) was incubated in the presence of 50 U caspase-3 enzyme at 37° C., which results in the cleavage of the DEVD sequence and removing the quenching effect of Dylight 766Q on the fluorophore Dylight 755. The increase in fluorescence over time was monitored.",
  "note": "Ends that are not written are not given here.",
  "data": [
    {"substance": "reporter element: caspase-3 cleavable sequence GKDEVDAPC-CONH2 to which a NIR FRET-pair (Dylight 755 / Dylight 766Q) is conjugated (GKDEVDAPC-NH2; also: Dylight 755 / Dylight 766Q FRET pair conjugated)", "values": [
      {"measurement": "activation of the NIR-based fluorophore by effector versus initiator caspases", "value": "selective activation"}
    ]}
  ]
}
